Values quoted from earlier work in US20170245495A1, “CHEMICAL LURE FOR ASIAN CITRUS PSYLLID” (The Regents of the University of California, priority 2014, published 2017).
Like-named read-outs stand apart in the source and are kept apart here.

Test system: D. citri
Details: Mann et al. 2012, Patt and Setamou 2010

SMILES | attraction of D. citri (literature) | attraction of D. citri (literature) (listed as MeSA)
COC(=O)c1ccccc1O [methyl salicylate] | implicated as D. citri attractants | attractant for D. citri
C=C/C(C)=C/CC=C(C)C [β-ocimene, (E)-β-ocimene] | attractive to D. citri | 
C=CC(C)(O)CCC=C(C)C (stereo not shown) [linalool] | attractive to D. citri | 
